Reference: patent US5840684A, “Glycopeptide antibiotic derivatives” (Eli Lilly and Company, priority 1995, dated 1998)
In brackets after ≈: the same amount, converted by molar mass.

How the values were obtained:
[1] = system: Leuconostoc lactis; experiment: agar dilution MIC, lactic acid bacteria; format: cell-based; settings: Leuconostoc lactis (mean of 2), brain-heart infusion agar
[2] = system: Leuconostoc pseudomesenteroides; experiment: agar dilution MIC, lactic acid bacteria; format: cell-based; settings: brain-heart infusion agar
[3] = system: Streptococcus pyogenes; experiment: mouse protection, experimentally-induced infection; format: in vivo; settings: mice infected with Streptococcus pyogenes, two doses
[4] = system: Staphylococcus aureus S13E; format: cell-based
Protocol: (§1) The MIC's were determined using a standard broth micro-dilution assay.

[5] = system: Staphylococcus aureus SA1199B; format: cell-based
Protocol: as §1

[6] = system: Pediococcus acidilacti; experiment: agar dilution MIC, lactic acid bacteria; format: cell-based; settings: Pediococcus acidilacti (mean of 10), brain-heart infusion agar
[7] = system: Lactobacillus confusus; experiment: agar dilution MIC, lactic acid bacteria; format: cell-based; settings: Lactobacillus confusus, brain-heart infusion agar
[8] = system: vancomycin-susceptible enterococci; experiment: broth micro-dilution, mean geometric MIC; format: cell-based, Enterococcus faecium and Enterococcus faecalis; settings: enterococci, 24-hour incubation
[9] = system: Stapylococcus aureus; experiment: mouse protection, experimentally-induced infection; format: in vivo; settings: mice infected with Stapylococcus aureus, two doses
[10] = system: Streptococcus pneumoniae; experiment: mouse protection, experimentally-induced infection; format: in vivo; settings: mice infected with Streptococcus pneumoniae, two doses
[11] = system: Leuconostoc citreum; experiment: agar dilution MIC, lactic acid bacteria; format: cell-based; settings: brain-heart infusion agar
[12] = system: Leuconostoc mesenteroides; experiment: agar dilution MIC, lactic acid bacteria; format: cell-based; settings: Leuconostoc mesenteroides (mean of 4), brain-heart infusion agar
[13] = system: Staphylococcus aureus SA1199; experiment: broth micro-dilution MIC; format: cell-based
Protocol: as §1

[14] = system: Staphylococcus aureus SA1199A; experiment: broth micro-dilution MIC; format: cell-based
Protocol: as §1

[15] = system: Staphylococcus aureus 446; experiment: broth micro-dilution MIC; format: cell-based
Protocol: as §1

[16] = system: Staphylococcus aureus 491; experiment: broth micro-dilution MIC; format: cell-based
Protocol: as §1

[17] = system: Entercoccus faecium 276; experiment: broth micro-dilution MIC; format: cell-based
Protocol: as §1

[18] = system: Entercoccus faecium 180-1; experiment: broth micro-dilution MIC; format: cell-based
Protocol: as §1

[19] = system: Staphylococcus aureus X400; experiment: broth micro-dilution MIC; format: cell-based
Protocol: as §1

[20] = system: Staphylococcus aureus X778; experiment: broth micro-dilution MIC; format: cell-based
Protocol: as §1

[21] = system: Staphylococcus aureus 447; experiment: broth micro-dilution MIC; format: cell-based
Protocol: as §1

[22] = system: Pediococcus pentosaceus; experiment: agar dilution MIC, lactic acid bacteria; format: cell-based; settings: Pediococcus pentosaceus (mean of 2), brain-heart infusion agar
[23] = system: Staphylococcus epidermidis 270; experiment: broth micro-dilution MIC; format: cell-based
Protocol: (§2) The formula I compounds have in vitro and in vivo activity against Gram-positive pathogenic bacteria. The MIC's were determined using a standard broth micro-dilution assay.

[24] = system: Staphylococcus haemolyticus 415; experiment: broth micro-dilution MIC; format: cell-based
Protocol: as §2

[25] = system: Staphylococcus haemolyticus 105; experiment: broth micro-dilution MIC; format: cell-based
Protocol: as §2

[26] = system: Enterococcus gallinarum 245; experiment: broth micro-dilution MIC; format: cell-based; settings: Enterococcus gallinarum 245
Protocol: as §2

[27] = system: Entercoccus faecium 2041; experiment: broth micro-dilution MIC; format: cell-based; settings: Entercoccus faecium 2041
Protocol: as §2

[28] = system: Entercoccus faecium 180; experiment: broth micro-dilution MIC; format: cell-based; settings: Entercoccus faecium 180
Protocol: as §2

[29] = system: vancomycin-resistant enterococci; experiment: broth micro-dilution, mean geometric MIC; format: cell-based, Enterococcus faecium and Enterococcus faecalis; settings: enterococci, 24-hour incubation
[30] = system: Streptococcus pyogenes C203; experiment: broth micro-dilution MIC; format: cell-based
Protocol: as §1

[31] = system: Escherichia coli EC14; experiment: broth micro-dilution MIC; format: cell-based
Protocol: as §2

[32] = system: Streptococcus pneumoniae P1; experiment: broth micro-dilution MIC; format: cell-based
Protocol: as §2

[33] = system: Haemophilus influenzae RD; experiment: broth micro-dilution MIC; format: cell-based; settings: Haemophilus influenzae RD
Protocol: as §2

[34] = system: Staphylococcus aureus 489; experiment: broth micro-dilution MIC; format: cell-based
Protocol: as §1

SMILES	MIC [1]	MIC [2]	ED50 [3]	MIC [4]	MIC [5]	MIC [6]	MIC [7]	mean geometric MIC, Vancomycin Sensitive Strains [8]	ED50 [9]	ED50 [10]	MIC [11]	MIC [12]	MIC [13]	MIC [15]	MIC [17]	MIC [18]	MIC [20]	MIC [22]	MIC [24]	mean geometric MIC, Vancomycin Resistant Strains [29]	other results
CNC(CC(C)C)C(=O)NC1C(=O)NC(CC(N)=O)C(=O)NC2C(=O)NC3C(=O)NC(C(=O)NC(C(=O)O)c4cc(O)cc(O)c4-c4cc3ccc4O)C(OC3CC(C)(N)C(O)C(C)O3)c3ccc(c(Cl)c3)Oc3cc2cc(c3OC2OC(CO)C(O)C(O)C2OC2CC(C)(NCc3ccc(C=Cc4ccccc4)cc3)C(O)C(C)O2)Oc2ccc(cc2Cl)C1O (centres unmarked) [Compound 29]	5.7 µg/mL (≈ 3.19 µM)	16 µg/mL (≈ 8.97 µM)	0.1 mg/kg/2	1 µg/mL (≈ 0.56 µM)	0.25 µg/mL (≈ 0.14 µM)	4.0 µg/mL (≈ 2.24 µM)	8 µg/mL (≈ 4.48 µM)	0.031 µg/mL	0.088 mg/kg/2	0.054 mg/kg/2	32 µg/mL (≈ 17.9 µM)	6.7 µg/mL (≈ 3.75 µM)	0.25 µg/mL (≈ 0.14 µM)	1 µg/mL (≈ 0.56 µM)	0.25 µg/mL (≈ 0.14 µM)	≤ 0.06 µg/mL	≤ 0.06 µg/mL	8.0 µg/mL (≈ 4.48 µM)	1 µg/mL (≈ 0.56 µM)	0.21 µg/mL	MIC [14]: ≤ 0.06 µg/mL; MIC [16]: 0.25 µg/mL (≈ 0.14 µM); MIC [19]: 0.25 µg/mL (≈ 0.14 µM); MIC [21]: 0.25 µg/mL (≈ 0.14 µM); MIC [23]: 0.5 µg/mL (≈ 0.28 µM); MIC [25]: 4 µg/mL (≈ 2.24 µM); MIC [26]: 0.25 µg/mL (≈ 0.14 µM); MIC [27]: 0.25 µg/mL (≈ 0.14 µM); MIC [28]: 0.25 µg/mL (≈ 0.14 µM)
CNC(CC(C)C)C(=O)NC1C(=O)NC(CC(N)=O)C(=O)NC2C(=O)NC3C(=O)NC(C(=O)NC(C(=O)O)c4cc(O)cc(O)c4-c4cc3ccc4O)C(OC3CC(C)(N)C(O)C(C)O3)c3ccc(c(Cl)c3)Oc3cc2cc(c3OC2OC(CO)C(O)C(O)C2OC2CC(C)(NCc3ccc(OC4CCCCC4)cc3)C(O)C(C)O2)Oc2ccc(cc2Cl)C1O (centres unmarked) [Compound 124]	16 µg/mL (≈ 8.99 µM)	64 µg/mL (≈ 35.9 µM)	0.092 mg/kg/2	≤ 0.06 µg/mL	≤ 0.06 µg/mL	20 µg/mL (≈ 11.2 µM)	16 µg/mL (≈ 8.99 µM)	0.047 µg/mL	–	0.041 mg/kg/2	64 µg/mL (≈ 35.9 µM)	16 µg/mL (≈ 8.99 µM)	1 µg/mL (≈ 0.562 µM)	4 µg/mL (≈ 2.25 µM)	≤ 0.06 µg/mL	≤ 0.06 µg/mL	0.5 µg/mL (≈ 0.281 µM)	16 µg/mL (≈ 8.99 µM)	1 µg/mL (≈ 0.562 µM)	0.84 µg/mL	MIC [14]: ≤ 0.06 µg/mL; MIC [30]: ≤ 0.06 µg/mL; MIC [19]: 1 µg/mL (≈ 0.562 µM); MIC [31]: > 64 µg/mL; MIC [32]: ≤ 0.06 µg/mL; MIC [25]: 2 µg/mL (≈ 1.12 µM); MIC [26]: 1 µg/mL (≈ 0.562 µM); MIC [33]: 16 µg/mL (≈ 8.99 µM); MIC [27]: ≤ 0.06 µg/mL; MIC [28]: ≤ 0.06 µg/mL
CNC(CC(C)C)C(=O)NC1C(=O)NC(CC(N)=O)C(=O)NC2C(=O)NC3C(=O)NC(C(=O)NC(C(=O)O)c4cc(O)cc(O)c4-c4cc3ccc4O)C(OC3CC(C)(N)C(O)C(C)O3)c3ccc(c(Cl)c3)Oc3cc2cc(c3OC2OC(CO)C(O)C(O)C2OC2CC(C)(NCc3cccc(Oc4ccccc4)c3)C(O)C(C)O2)Oc2ccc(cc2Cl)C1O (centres unmarked) [Compound 49]	64 µg/mL (≈ 36.1 µM)	128 µg/mL (≈ 72.1 µM)	0.045 mg/kg/2	–	–	55 µg/mL (≈ 31 µM)	64 µg/mL (≈ 36.1 µM)	0.083 µg/mL	0.053 mg/kg/2	< 0.031 mg/kg/2	128 µg/mL (≈ 72.1 µM)	64 µg/mL (≈ 36.1 µM)	–	–	–	–	–	64 µg/mL (≈ 36.1 µM)	–	0.71 µg/mL	–
CNC(CC(C)C)C(=O)NC1C(=O)NC(CC(N)=O)C(=O)NC2C(=O)NC3C(=O)NC(C(=O)NC(C(=O)O)c4cc(O)cc(O)c4-c4cc3ccc4O)C(OC3CC(C)(N)C(O)C(C)O3)c3ccc(c(Cl)c3)Oc3cc2cc(c3OC2OC(CO)C(O)C(O)C2OC2CC(C)(NCc3ccc(Cc4ccccc4)cc3)C(O)C(C)O2)Oc2ccc(cc2Cl)C1O (centres unmarked) [Compound 50]	64 µg/mL (≈ 36.1 µM)	128 µg/mL (≈ 72.2 µM)	0.047 mg/kg/2	–	–	51 µg/mL (≈ 28.8 µM)	64 µg/mL (≈ 36.1 µM)	0.054 µg/mL	0.1 mg/kg/2	0.057 mg/kg/2	128 µg/mL (≈ 72.2 µM)	64 µg/mL (≈ 36.1 µM)	–	–	–	–	–	64 µg/mL (≈ 36.1 µM)	–	0.12 µg/mL	–
CNC(CC(C)C)C(=O)NC1C(=O)NC(CC(N)=O)C(=O)NC2C(=O)NC3C(=O)NC(C(=O)NC(C(=O)O)c4cc(O)cc(O)c4-c4cc3ccc4O)C(OC3CC(C)(N)C(O)C(C)O3)c3ccc(c(Cl)c3)Oc3cc2cc(c3OC2OC(CO)C(O)C(O)C2OC2CC(C)(NCc3ccc(OCc4ccccc4)cc3)C(O)C(C)O2)Oc2ccc(cc2Cl)C1O (centres unmarked) [Compound 5]	8.0 µg/mL (≈ 4.47 µM)	16 µg/mL (≈ 8.95 µM)	0.039 mg/kg/2	1 µg/mL (≈ 0.559 µM)	≤ 0.06 µg/mL	2.8 µg/mL (≈ 1.57 µM)	16 µg/mL (≈ 8.95 µM)	0.072 µg/mL	0.13 mg/kg/2	0.036 mg/kg/2	64 µg/mL (≈ 35.8 µM)	8 µg/mL (≈ 4.47 µM)	1 µg/mL (≈ 0.559 µM)	1 µg/mL (≈ 0.559 µM)	≤ 0.06 µg/mL	≤ 0.06 µg/mL	0.5 µg/mL (≈ 0.28 µM)	8.0 µg/mL (≈ 4.47 µM)	1 µg/mL (≈ 0.559 µM)	0.50 µg/mL	MIC [14]: ≤ 0.06 µg/mL; MIC [16]: 0.5 µg/mL (≈ 0.28 µM); MIC [30]: ≤ 0.06 µg/mL; MIC [21]: 0.5 µg/mL (≈ 0.28 µM); MIC [31]: > 64 µg/mL; MIC [32]: ≤ 0.06 µg/mL; MIC [25]: 2 µg/mL (≈ 1.12 µM); MIC [26]: ≤ 0.06 µg/mL; MIC [27]: ≤ 0.06 µg/mL; MIC [28]: ≤ 0.06 µg/mL
CNC(CC(C)C)C(=O)NC1C(=O)NC(CC(N)=O)C(=O)NC2C(=O)NC3C(=O)NC(C(=O)NC(C(=O)O)c4cc(O)cc(O)c4-c4cc3ccc4O)C(OC3CC(C)(N)C(O)C(C)O3)c3ccc(c(Cl)c3)Oc3cc2cc(c3OC2OC(CO)C(O)C(O)C2OC2CC(C)(NCc3ccc(-c4ccc(-c5ccccc5)cc4)cc3)C(O)C(C)O2)Oc2ccc(cc2Cl)C1O (centres unmarked) [Compound 36]	16 µg/mL (≈ 8.72 µM)	32 µg/mL (≈ 17.4 µM)	0.28 mg/kg/2	2 µg/mL (≈ 1.09 µM)	4 µg/mL (≈ 2.18 µM)	9.2 µg/mL (≈ 5.01 µM)	32 µg/mL (≈ 17.4 µM)	0.21 µg/mL	0.19 mg/kg/2	0.31 mg/kg/2	32 µg/mL (≈ 17.4 µM)	16 µg/mL (≈ 8.72 µM)	4 µg/mL (≈ 2.18 µM)	8 µg/mL (≈ 4.36 µM)	2 µg/mL (≈ 1.09 µM)	≤ 0.06 µg/mL	2 µg/mL (≈ 1.09 µM)	16 µg/mL (≈ 8.72 µM)	8 µg/mL (≈ 4.36 µM)	0.25 µg/mL	MIC [16]: 1 µg/mL (≈ 0.545 µM); MIC [19]: 4 µg/mL (≈ 2.18 µM); MIC [34]: 2 µg/mL (≈ 1.09 µM); MIC [21]: 2 µg/mL (≈ 1.09 µM); MIC [23]: 2 µg/mL (≈ 1.09 µM); MIC [25]: 4 µg/mL (≈ 2.18 µM); MIC [27]: 1 µg/mL (≈ 0.545 µM); MIC [28]: 0.25 µg/mL (≈ 0.136 µM)
